In the supplement of paper PMC6723410:

Key:
[1] = test system: GUMC-403; assay: viability at highest tested concentration (max response) relative to DMSO (% of DMSO control); higher = less cytotoxic; settings: library / dose series: MIPE library, 11-point 1:3 dilution, 48 h
Procedure, shortened: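 GUMC-403 papilloma cells, derived from a patient and expanded by conditional reprogramming, were dispensed at 700/well into 1536-well plates in 5 μL F + Y medium. A pin tool delivered 23 nL of each compound across an 11-point 1:3 dilution series for 48 h. CellTiter-Glo luminescence, read on a ViewLux, was normalised so that vehicle wells equalled 100% and empty wells 0%. Values report viability at the highest tested concentration relative to vehicle control.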

[2] = test system: GUMC-403; assay: AC50 for reduction of cell viability; higher = less potent; settings: 48 h
[3] = library / dose series: MIPE library, 11-point 1:3 dilution
[4] = library / dose series: NPC library, 8-point 1:5 dilution

| SMILES | viability ([1]; top concentration 46.1 µM) | AC50 for reduction of cell viability [2, 3] [µM] | AC50 for reduction of cell viability [2, 4] [µM] | viability ([1]; top concentration 92.2 µM) |
| --- | --- | --- | --- | --- |
| CC(/C=C/C(=O)NO)=C\[C@@H](C)C(=O)c1ccc(N(C)C)cc1 | 26 | 20.9 | – | – |
| CN(C)c1ccc(C(=O)NCCCCCCC(=O)NO)cc1 | 33.9 | 18.7 | – | – |
| Cc1nc(N)ncc1-c1nc(N2CCOCC2)c2sc(C(C)(C)O)cc2n1 | 45.7 | 0.332 | – | – |
| CC(C)C[C@H](NC(=O)[C@@H](NC(=O)c1cccc(-c2ccccc2)n1)[C@@H](C)O)B(O)O | 26.3 | 1.87 | – | – |
| COc1ccc(F)c(F)c1C(=O)c1cnc(NC2CCN([S+](C)(=O)[O-])CC2)nc1N | 55.6 | 4.69 | – | – |
| CN1CCN(c2cc(C(=O)Nc3ccc4c(c3)-c3c(c(C(N)=O)nn3-c3ccc(F)cc3)CC4)c(Cl)cn2)CC1 | 7.1 | 5.26 | – | – |
| COc1ccc(Nc2cc(-c3cnc(N)nc3)nc(N3CCOCC3)n2)cn1 | 31.5 | 2.96 | – | – |
| N[S+](=O)([O-])OC[C@@H]1C[C@@H](n2ccc3c(N[C@H]4CCc5ccccc54)ncnc32)C[C@@H]1O | 60.8 | 0.469 | – | – |
| COC1=CC=C2/C3=N/CCN3\C(=N/C2=C1OC)NC(=O)C4=CC=CN=C4 | 64.7 | 5.9 | – | – |
| CC1=C2N=C([NH]C2=CC(=C1)N3CCOCC3)\C4=C(NC[C@@H](O)C5=CC=CC(=C5)Cl)\C=C/NC4=O | 13.8 | 0.235 | – | – |
| O=C1c2c(O)ccc(O)c2C(=O)c2c(NCCNCCO)ccc(NCCNCCO)c21 | 12.4 | 7.43 | – | – |
| O=C(NOCC1CC1)c1ccc(F)c(F)c1Nc1ccc(I)cc1Cl | 20.7 | 23.5 | 13.3 | – |
| Cc1[nH]c2ccccc2c1CCNCc1ccc(/C=C/C(=O)NO)cc1 | 38.2 | 2.64 | – | – |
| Clc1ccc(C(c2ccc(Cl)cc2)[n+]2ccn(CC(OCc3ccc(Cl)cc3Cl)c3ccc(Cl)cc3Cl)c2)cc1 (stereo not given) | 25.1 | 20.9 | – | – |
| O=C(/C=C/c1ccc(CN(CCO)CCc2c[nH]c3ccccc23)cc1)NO | 44.9 | 5.9 | – | – |
| CNC(=O)c1nn(C)c2c1C(C)(C)Cc1cnc(Nc3ccc(N4CCN(C)CC4)cc3)nc1-2 | 58.7 | 4.69 | – | – |
| COc1cc(C[C@@H](CO)[C@H](CO)Cc2ccc(O)c(OC)c2)ccc1O | 34.9 | 2.64 | – | – |
| O=C(Nc1ccc([N+](=O)[O-])cc1Cl)c1cc(Cl)ccc1O | 53.9 | 4.18 | – | – |
| CN[C@@H]1[C@H](O)[C@H](NC)[C@H]2O[C@@]3(O)C(=O)C[C@@H](C)O[C@H]3O[C@@H]2[C@H]1O | 13.3 | 10.5 | – | – |

| SMILES | viability ([1]; top concentration 46.1 µM) | AC50 for reduction of cell viability [2, 3] [µM] | AC50 for reduction of cell viability [2, 4] [µM] | viability ([1]; top concentration 92.2 µM) |
| --- | --- | --- | --- | --- |
| CNC(=O)c1ccccc1Nc1nc(Nc2ccc(N3CCOCC3)cc2OC)ncc1Cl | 9.51 | 1.48 | – | – |
| CC(C)NC[C@@H](C(=O)N1CCN(c2ncnc3c2[C@H](C)C[C@H]3O)CC1)c1ccc(Cl)cc1 | 76.6 | 2.35 | – | – |
| Cc1nc(Nc2ncc(C(=O)Nc3c(C)cccc3Cl)s2)cc(N2CCN(CCO)CC2)n1 | 58.6 | 0.209 | – | – |
| CC(=O)Nc1nc(C)c(-c2ccc(Cl)c([S+](=O)([O-])NCCO)c2)s1 | 12.5 | 14.8 | – | – |
| C[C@H]1O[C@H](C[C@H](O)[C@@H]1O)O[C@H]2[C@@H](O)C[C@@H](O[C@@H]2C)O[C@H]3[C@@H](O)C[C@@H](O[C@@H]3C)O[C@H]4CC[C@@]5(C)[C@H](CC[C@@H]6[C@@H]5C[C@@H](O)[C@]7(C)[C@H](CC[C@]67O)C/8=C/C(=O)OC8)C4 | – | 0.191 | – | 48.5 |
| COc1cc(Nc2c(C#N)cnc3cc(OCCCN4CCN(C)CC4)c(OC)cc23)c(Cl)cc1Cl | 74.7 | 2.35 | – | – |
| COc1cc2nc(-c3ccc(N4CCN(C)CC4)cc3)nc(NCCN3CCOCC3)c2cc1OC | 48.5 | 1.05 | – | – |
| Cc1n[nH]c2ccc(-c3cncc(OC[C@@H](N)Cc4ccccc4)c3)cc12 | 5.22 | 2.64 | – | – |
| COc1cc(Nc2ncc(F)c(Nc3ccc4c(n3)N(COP(=O)(O)O)C(=O)C(C)(C)O4)n2)cc(OC)c1OC | 34.2 | 0.935 | – | – |
| Cc1c(CN2CCN(C(=O)[C@H](C)O)CC2)sc2c(N3CCOCC3)nc(-c3cnc(N)nc3)nc12 | 54.1 | 0.148 | – | – |
| CC(C)c1cc(C(=O)N2Cc3ccc(CN4CCN(C)CC4)cc3C2)c(O)cc1O | 75.9 | 0.833 | – | – |
| OC[C@H]1OC(OC2=CC3=C(C(=C2)O)C(=O)\C(=C/O3)C4=CC=C(O)C=C4)[C@H](O)[C@@H](O)[C@@H]1O (stereo not given in full) | 21.4 | 9.35 | – | – |
| CNCC[C@H](Oc1cccc2ccccc12)c1cccs1 | 36 | 10.5 | – | – |
| C[S+](=O)([O-])CCNCc1ccc(-c2ccc3ncnc(Nc4ccc(OCc5cccc(F)c5)c(Cl)c4)c3c2)o1 | 8.12 | 10.5 | – | – |
| CC(C)C1=N[N](C\2=C1C(=O)N\C(=N2)CC3=CC=C(OCCO)C=C3)C4=C(Cl)C=CC=C4Cl | 47.9 | 0.132 | – | – |
| Cc1ccc(C(N)=O)cc1Nc1nccc(-c2cn(C(C)C)c3cnccc23)n1 | 30 | 8.33 | – | – |
| CN1\N=C(N)/C2=C[N]([C@@H]3O[C@H](CO[P](O)(O)=O)[C@@H](O)[C@H]3O)C4=C2C1=NC=N4 | 57.8 | 1.48 | – | – |
| Cc1cc(Nc2cc(NC(=O)c3c(Cl)cccc3Cl)ccn2)nc(N)n1 | 13 | 20.9 | – | – |
| COC1=C2C[C@@H](C)C[C@H](OC)[C@H](O)[C@@H](C)/C=C(\C)[C@H](OC(N)=O)[C@@H](OC)/C=C/C=C(\C)C(=O)NC(=CC1=O)C2=O | 23.9 | 4.69 | – | – |

| SMILES | viability ([1]; top concentration 46.1 µM) | AC50 for reduction of cell viability [2, 3] [µM] | AC50 for reduction of cell viability [2, 4] [µM] | viability ([1]; top concentration 92.2 µM) |
| --- | --- | --- | --- | --- |
| CC/C(=C(/c1ccc(O)cc1)c1ccc(OCCNC)cc1)c1ccccc1 | 23.9 | 23.5 | – | – |
| CCn1nnc2c(N3CCOCC3)nc(-c3ccc(NC(=O)Nc4ccc(C(=O)N5CCN(C)CC5)cc4)cc3)nc21 | 54.4 | 0.00935 | – | – |
| CC(C)CC(=O)Nc1n[nH]c2c1CN(C(=O)C1CCN(C)CC1)C2(C)C | 15.9 | 1.48 | – | – |
| Cn1c2ccccc2c2c3c(c4c5ccccc5n(CCC#N)c4c21)CNC3=O | 65.1 | 7.43 | – | – |
| CC(C)C[C@H](NC(=O)[C@H](CCc1ccccc1)NC(=O)CN1CCOCC1)C(=O)N[C@@H](Cc1ccccc1)C(=O)N[C@@H](CC(C)C)C(=O)[C@@]1(C)CO1 | 6.18 | 1.05 | – | – |
| Cc1c(CN2CCN([S+](C)(=O)[O-])CC2)sc2c(N3CCOCC3)nc(-c3cnc(N)nc3)nc12 | 41.9 | 0.118 | – | – |
| C1=C/COCc2cc(ccc2OCCN2CCCC2)Nc2nccc(n2)-c2cccc(c2)OCC/1 | 76.3 | 7.43 | – | – |
| Cc1ccc([N+](=O)[O-])cc1[S+](=O)([O-])N(C)/N=C/c1cnc2ccc(Br)cn12 | 8.42 | 0.0235 | – | – |
| CCN1CCN(CC1)CC(=O)NC2=CC=C(C3=C2C4=C(S3)C=CC=C4)C5=C6O\C(=C/C(=O)C6=CC=C5)N7CCOCC7 | 58.7 | 2.96 | – | – |
| C[C@H]([C@H]1C\C(=C(CO)/C(=O)O1)C)[C@H]2CC[C@H]3[C@@H]4C[C@H]5O[C@]56[C@@H](O)\C=C/C(=O)[C@]6(C)[C@H]4CC[C@]23C | 5.02 | 14.8 | – | – |
| CC(C)C[C@@H](C(=O)N[C@H](C(=O)OC1CCCC1)c1ccccc1)[C@H](O)C(=O)NO | 66.7 | 1.66 | – | – |
| CCc1cnn2c(NCc3ccc[n+]([O-])c3)cc(N3CCCC[C@H]3CCO)nc12 | 62.2 | 0.0469 | – | – |
| CN[S+](=O)([O-])CCc1ccc2[nH]cc(C3CCN(C)CC3)c2c1 | 70 | 2.35 | – | – |
| C/C(=N\NC(=S)N1CCC1)c1ccccn1 | 44 | 4.18 | – | – |
| CC(C)[C@H](C(=O)Nc1ccc(C(=O)NO)cc1)c1ccccc1 | 11 | 18.7 | – | – |
| COc1ccc(-c2ccc3c(N4CCOC[C@@H]4C)nc(N4CCOC[C@@H]4C)nc3n2)cc1CO | 57.2 | 0.0372 | – | – |
| COc1cccc2c1C(=O)c1c(O)c3c(c(O)c1C2=O)C[C@@](O)(C(=O)CO)C[C@@H]3O[C@H]1C[C@H](N)[C@H](O)[C@H](C)O1 | 34.7 | 1.87 | – | – |
| Cc1ccc2nc(NCCN)c3ncc(C)n3c2c1 | 33.4 | 13.2 | – | – |
| Cl.Cl.Fc1ccc(C(OCCN2CCN(CCCc3ccccc3)CC2)c2ccc(F)cc2)cc1 | 67.6 | – | 11.9 | – |
